From patent US12385039B2, “Trinucleotide cap analogs, preparation and uses thereof” (LIFE TECHNOLOGIES CORPORATION, priority 2020, dated 2025)

Tests used:
T7 RNA polymerase = T7 RNA polymerase (Escherichia phage T7, UniProt P00573); conditions: HB-WT Template, ARCA Cap (4:1 ARCA:GTP)
Procedure: The DNAzyme reaction was performed in a 20 μl reaction containing 1-2 μg RNA and 0.5 μM DNAzyme in 50 mM Tris-HCl pH 7.5. The reaction mixture was preheated at 85° C. for 30 seconds and equilibrate at 37° C. for 5 minutes and added magnesium chloride to 10 mM so that the total volume was 20 μl. The reaction mixture was incubated at 37° C. for 1 hour and stopped by adding 2 μL TURBO DNase and incubating at 37° C. for 30 minutes.
The DNAzyme reaction mixture was prepared for gel analysis by mixing with 2× NOVEX™ TBE-Urea sample buffer (Thermo Fisher Scientific, cat. no. LC6876) and heating at 70° C. for 2 minutes. The sample was loaded onto a NovEx™ 15% TBE-Urea gel (Thermo Fisher Scientific, cat. no. EC68855BOX) and ran at 15 V, 15 mA for 1 hour and 40 minutes or until the bromophenol blue dye migrated to the bottom of the gel. The gel was removed from the cassette, washed in water, and stained with SYBR™ Gold Nucleic Acid Gel Stain (Thermo Fisher Scientific, cat. no. S11494) for 5-10 minutes. Following a brief wash in water, the gel was visualized over an UV light and an image was captured using an iBRIGHT™ system (Thermo Fisher Scientific). Capping efficiency was determined using […] ™ software (ProteinSimple) to measure band intensities of the fast and slow migrating transcripts (capped transcripts are longer than uncapped transcripts; therefore uncapped migrates faster).

T7 or SP6 RNA polymerase = conditions: either 3'-OH of G or m7G can initiate elongation; cited from earlier work

T7 RNA polymerase, sequence (P00573 whole entry, looked up): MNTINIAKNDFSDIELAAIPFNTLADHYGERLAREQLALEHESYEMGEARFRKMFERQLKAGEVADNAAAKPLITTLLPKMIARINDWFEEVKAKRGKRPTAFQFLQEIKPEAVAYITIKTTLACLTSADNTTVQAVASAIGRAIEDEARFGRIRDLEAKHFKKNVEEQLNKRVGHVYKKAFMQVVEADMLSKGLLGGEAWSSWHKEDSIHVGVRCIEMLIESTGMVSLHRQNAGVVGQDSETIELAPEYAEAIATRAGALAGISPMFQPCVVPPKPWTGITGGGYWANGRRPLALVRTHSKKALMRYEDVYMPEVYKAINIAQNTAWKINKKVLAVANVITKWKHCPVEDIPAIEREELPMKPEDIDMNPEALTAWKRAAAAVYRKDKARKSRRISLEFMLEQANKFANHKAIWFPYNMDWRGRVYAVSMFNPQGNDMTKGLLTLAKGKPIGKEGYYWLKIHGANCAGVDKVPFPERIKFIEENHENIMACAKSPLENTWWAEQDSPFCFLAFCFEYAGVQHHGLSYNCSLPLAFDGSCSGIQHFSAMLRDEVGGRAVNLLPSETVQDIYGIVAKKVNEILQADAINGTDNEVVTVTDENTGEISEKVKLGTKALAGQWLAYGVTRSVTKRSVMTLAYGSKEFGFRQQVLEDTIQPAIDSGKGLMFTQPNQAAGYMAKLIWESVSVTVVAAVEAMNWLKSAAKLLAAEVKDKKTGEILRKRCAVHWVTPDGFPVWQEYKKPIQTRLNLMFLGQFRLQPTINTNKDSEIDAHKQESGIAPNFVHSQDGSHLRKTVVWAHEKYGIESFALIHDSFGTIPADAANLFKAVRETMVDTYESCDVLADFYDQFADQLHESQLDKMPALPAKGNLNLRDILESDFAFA

Row | SMILES | Capping Efficiency Avg % capped (T7 RNA polymerase) [%] | capped RNA that is translatable (T7 or SP6 RNA polymerase) [%]
1 | CO[C@H]1[C@@H](O)[C@H](n2c[n+](C)c3c(=O)[nH]c(N)nc32)O[C@@H]1COP(=O)(O)OP(=O)(O)OP(=O)(O)OC[C@H]1O[C@@H](n2cnc3c(=O)[nH]c(N)nc32)[C@H](O)[C@@H]1O [ARCA Cap] | 71.93 | –
2 | Cn1c[n+]([C@@H]2O[C@H](COP(=O)(O)OP(=O)(O)OP(=O)(O)OC[C@H]3O[C@@H](n4cnc5c(=O)[nH]c(N)nc54)[C@H](O)[C@@H]3O)[C@@H](O)[C@H]2O)c2nc(N)[nH]c(=O)c21 [mCAP, m^7G(5′)ppp(5′)G] | – | ~50
